Laboratory results taken from US20130337485A1, “ENZYMATIC SYNTHESIS OF ACTIVE PHARMACEUTICAL INGREDIENT AND INTERMEDIATES THEREOF” (LEK PHARMACEUTICALS D.D, priority 2010, published 2013).

Assays:
[1] = target: T1, E. coli YliI aldose dehydrogenase (Escherichia coli, UniProt P75804, A204V); test: Substrate specificity and pH optima of E. coli YliI aldose dehydrogenase (DCPIP method); format: biochemical; details: for Activity of E. coli BL21(DE3) pET30/Ylil on substrate, resting whole cell: 50 mM substrate, 5 μM PQQ, 10 mM MgCl2
T1 construct: made in house; host or cells: E. coli BL21(DE3) carrying pET30/YliI; not purified (resting whole cells or cell free lysate), reconstituted with PQQ and MgCl2
T1 sequence (P75804 21-371 A204V): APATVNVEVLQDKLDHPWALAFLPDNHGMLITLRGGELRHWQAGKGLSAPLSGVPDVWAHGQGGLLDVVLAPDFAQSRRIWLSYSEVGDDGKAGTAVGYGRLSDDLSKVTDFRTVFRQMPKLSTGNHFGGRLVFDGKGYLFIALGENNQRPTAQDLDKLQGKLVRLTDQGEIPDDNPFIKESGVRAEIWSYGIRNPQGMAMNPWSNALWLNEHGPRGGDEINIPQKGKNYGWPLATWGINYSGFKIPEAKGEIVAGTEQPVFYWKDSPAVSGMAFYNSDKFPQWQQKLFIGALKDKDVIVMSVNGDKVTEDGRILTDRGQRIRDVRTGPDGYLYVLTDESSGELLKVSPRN
Protocol: (§1) Final volume of reaction mixture was 200 μL, all components were dissolved in phosphate buffer pH 8.0.
(§2) The catalyst E. coli BL21 pET30/YliI culture obtained either as resting whole cell catalyst (obtained undertaking Procedure 1C) or as lysate (as described in Example 2). The initial pH value of reaction mixture was 8.0. All tested solutions were made in triplicates.
(§3) The second reaction mixture was prepared identically to the above with a sole difference: the pH value of assembled mixture being 6.0 (all compounds of reaction mixture were dissolved in phosphate buffer pH 6.0 and the initial pH value of reaction mixture was thus 6.0). All tested solutions were made in triplicates.
(§4) Experiment was performed as described in Example 11. In the table below are shown activities of “analyzed material” (abs[mAU min^−1 mg^−1])

[2] = target: T2, membrane bound glucose dehydrogenase from E. coli, the Gcd (Escherichia coli, UniProt P15877); test: Substrate specificity and pH optima of membrane bound glucose dehydrogenase Gcd (DCPIP method); format: biochemical; details: for Activity of E. coli BL21(DE3) pET30/Gcd on substrate, lysate / Activity of E. coli BL21(DE3) pET30/Gcd on substrate, resting whole cell: 50 mM substrate, 5 μM PQQ, 10 mM MgCl2
T2 construct: made in house; host or cells: E. coli BL21(DE3) carrying pET30/Gcd; not purified (resting whole cells or lysate), reconstituted with PQQ and MgCl2
T2 sequence (P15877 1-796): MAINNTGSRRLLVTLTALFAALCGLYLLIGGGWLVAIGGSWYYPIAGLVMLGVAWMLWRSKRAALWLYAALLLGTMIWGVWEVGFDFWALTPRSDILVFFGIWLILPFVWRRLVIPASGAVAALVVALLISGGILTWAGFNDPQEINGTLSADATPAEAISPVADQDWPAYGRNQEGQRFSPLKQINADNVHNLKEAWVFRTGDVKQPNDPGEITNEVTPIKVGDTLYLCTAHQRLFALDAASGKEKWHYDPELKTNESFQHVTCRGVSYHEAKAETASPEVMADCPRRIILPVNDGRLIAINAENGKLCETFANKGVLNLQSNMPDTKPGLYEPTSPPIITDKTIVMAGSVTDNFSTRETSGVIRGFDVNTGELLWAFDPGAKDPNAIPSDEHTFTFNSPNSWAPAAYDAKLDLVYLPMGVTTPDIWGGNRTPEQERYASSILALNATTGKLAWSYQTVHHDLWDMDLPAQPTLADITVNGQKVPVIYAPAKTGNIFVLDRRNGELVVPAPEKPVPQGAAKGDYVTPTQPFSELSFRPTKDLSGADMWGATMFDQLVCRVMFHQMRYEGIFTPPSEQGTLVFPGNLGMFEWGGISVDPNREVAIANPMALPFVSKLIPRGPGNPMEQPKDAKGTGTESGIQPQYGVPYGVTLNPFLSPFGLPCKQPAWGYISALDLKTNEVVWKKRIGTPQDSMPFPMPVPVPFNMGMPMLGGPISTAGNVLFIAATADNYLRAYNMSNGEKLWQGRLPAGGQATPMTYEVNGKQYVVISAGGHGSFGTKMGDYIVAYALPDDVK
Protocol: To investigate substrate specificity and pH optima of said E. coli membrane aldose dehydrogenase the above mentioned experiments were performed on the catalyst E. coli BL21 pET30/Gcd.

[3] = target: T3, E. coli YliI aldose dehydrogenase (Escherichia coli, UniProt P75804); test: Substrate specificity and pH optima of E. coli YliI aldose dehydrogenase (DCPIP method); format: biochemical; details: 50 mM substrate, 5 μM PQQ, 10 mM MgCl2
T3 construct: made in house; host or cells: E. coli BL21(DE3) carrying pET30/YliI; not purified (resting whole cells or cell free lysate), reconstituted with PQQ and MgCl2
T3 sequence (P75804 21-371 A204V): as the sequence (P75804 21-371 A204V) above
Protocol: as §1, §2, §3, §4

[4] = tested on: whole cell catalyst E. coli BL21 pET30/Gcd; test: Whole cell catalysis capability in bioreactor using pO2 sensor; format: cell-based; details: pH 6.2, 37° C., 5 μM PQQ, 10 mM MgCl2
Protocol: Laboratory bioreactors Infors ISF100 with maximal volume of 2 L were used for determination of whole cell catalysis capability of E. coli aldose dehydrogenases. The reactors were stirred, aerated, temperature and pH controlled as described below. When whole cell catalysts bearing holo aldose dehydrogenases were exposed to various substrates, unusual consumption of O2 appeared.
Experiments were performed using whole cell catalyst E. coli BL21 pET30/Gcd (procedure of preparation in described in Example 1, Procedure 1A and moreover in Example 25).
Whole cell catalysts were dissolved in phosphate buffer (50 mM KH2PO4, 150 mM NaCl, pH 6.2) to concentrations of 5 g/L, 10 g/L and 20 g/L to the final volume ([…] in the bioreactor.
The initial process parameters before substrate was added were as follows: 37° C., air flow rate 1.0 L/min (1.0 VVM), stirrer speed 1000 rpm, pH 6.2 and the dissolved oxygen concentration was kept at ≧80% of saturation. 5 μM PQQ and 10 mM MgCl2 were provided into bioreactor broth. Feeding solution were 12.5% (v/v) ammonium hydroxide solution and the silicone antifoam compound synperonic antifoam (Sigma, A-5551) which were fed continuously.
The system described above is very complex in terms of mathematical description of dissolved oxygen levels over the time. On the one hand these are depending on the kLa (vessel properties, stirring, aeration, medium, temperature etc) and enzymatic kinetics on the aldose dehydrogenase on the other hand. In addition the oxygen probe delay kinetics play an important role. We have therefore found empirically, that oxygen consumption in the phase after the pulse feed of the substrate till the minimum of the dissolved oxygen in this dynamic system is best correlated to quadratic equation. A good indicator of the activity potential of the studied biocatalyst is the slope of this quadratic equation, measured at specific time value (for example t=15 seconds). The slope was calculated from the first derivative of the quadratic equation.

[5] = target: glucose oxidase from A. niger (Aspergillus niger, UniProt P13006); details: cited from earlier work
Sequence of glucose oxidase from A. niger (P13006 17-605): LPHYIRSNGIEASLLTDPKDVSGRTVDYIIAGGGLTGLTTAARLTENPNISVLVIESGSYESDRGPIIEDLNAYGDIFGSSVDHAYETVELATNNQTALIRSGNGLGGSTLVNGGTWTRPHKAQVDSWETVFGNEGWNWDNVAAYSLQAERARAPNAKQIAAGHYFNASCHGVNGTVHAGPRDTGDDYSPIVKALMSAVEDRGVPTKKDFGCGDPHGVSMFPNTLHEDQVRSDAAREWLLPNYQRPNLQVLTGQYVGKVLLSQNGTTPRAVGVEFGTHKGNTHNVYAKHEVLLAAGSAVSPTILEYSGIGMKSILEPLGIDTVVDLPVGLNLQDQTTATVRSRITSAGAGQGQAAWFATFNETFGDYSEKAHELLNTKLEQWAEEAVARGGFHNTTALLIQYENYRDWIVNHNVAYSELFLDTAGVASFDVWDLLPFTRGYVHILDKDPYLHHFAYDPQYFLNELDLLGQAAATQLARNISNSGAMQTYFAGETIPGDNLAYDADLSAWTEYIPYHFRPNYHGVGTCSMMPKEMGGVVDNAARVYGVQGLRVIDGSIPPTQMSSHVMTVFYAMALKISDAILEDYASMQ

[6] = whole cell catalyst BL21 (DE3) pET30/Gcd 5 g/L
[7] = whole cell catalyst BL21 (DE3) pET30/Gcd 10 g/L
[8] = whole cell catalyst BL21 (DE3) pET30/Gcd 20 g/L

SMILES	Activity of E. coli BL21(DE3) pET30/Ylil on substrate, lysate ([3]; pH 6.0)	Activity of E. coli BL21(DE3) pET30/Ylil on substrate, lysate ([3]; pH 8.0)	Activity of E. coli BL21(DE3) pET30/Ylil on substrate, resting whole cell ([1]; pH 6.0)	Activity of E. coli BL21(DE3) pET30/Ylil on substrate, resting whole cell ([1]; pH 8.0)	Activity of E. coli BL21(DE3) pET30/Gcd on substrate, lysate ([2]; pH 6.0)	Activity of E. coli BL21(DE3) pET30/Gcd on substrate, resting whole cell ([2]; pH 6.0)	Activity of E. coli BL21(DE3) pET30/Gcd on substrate, lysate ([2]; pH 8.0)	Activity of E. coli BL21(DE3) pET30/Gcd on substrate, resting whole cell ([2]; pH 8.0)	Reaction rate of oxidation by glucose oxidase, glucose as reference (100%) [5]	also measured
CC(=O)OC[C@@H]1C[C@@H](O)CC(=O)O1										Added product concentration above which slight reduction in reaction rates was observed ([1]; E. coli BL21 pET30/YliI, pH 8.0, in addition of 10 g/L substrate): more than 35 g/L; Added product concentration above which slight reduction in reaction rates was observed ([2]; E. coli BL21 pET30/Gcd, pH 6.0, in addition of 10 g/L substrate): more than 55 g/L
CC(=O)OC[C@@H]1C[C@@H](O)CC(O)O1 (stereo partly drawn)	273 abs[mAU min^−1 mg^−1]	1913 abs[mAU min^−1 mg^−1]	270 abs[mAU min^−1 mg^−1]	1897 abs[mAU min^−1 mg^−1]	2403 abs[mAU min^−1 mg^−1]	2403 abs[mAU min^−1 mg^−1]	1013 abs[mAU min^−1 mg^−1]	1105 abs[mAU min^−1 mg^−1]		Substrate concentration above which slight substrate inhibition to the reaction rate was observed ([1]; E. coli BL21 pET30/YliI, pH 8.0): above 40 g/L; DCPIP discoloration rate compared with D-glucose or D-galactose as substrate ([1]; E. coli BL21 pET30/YliI, pH 8.0, 2.5-10 g/L substrate): about two times faster; Substrate concentration above which slight substrate inhibition to the reaction rate was observed ([2]; E. coli BL21 pET30/Gcd, pH 6.0): above 60 g/L; DCPIP discoloration rate compared with D-glucose or D-galactose as substrate ([2]; E. coli BL21 pET30/Gcd, pH 6.0, 2.5-10 g/L substrate): about two times slower; Slope of quadratic equation of oxygen consumption after substrate pulse [4, 6]: 38652; Slope of quadratic equation of oxygen consumption after substrate pulse [4, 7]: 87425; Slope of quadratic equation of oxygen consumption after substrate pulse [4, 8]: 163562
O=CC[C@@H](O)[C@H](O)[C@H](O)CO [2-deoxy-D-glucose]									20-30%	
CO[C@@H]([C@H](O)[C@@H](O)C=O)[C@H](O)CO [4-O-methyl-D-glucose]									15%	
C[C@@H](O)[C@@H](O)[C@H](O)[C@@H](O)C=O [6-deoxy-D-glucose]									10%	
O=C[C@H](O)[C@@H](O)[C@H](O)[C@H](O)CO [D-glucose]	210 abs[mAU min^−1 mg^−1]	321 abs[mAU min^−1 mg^−1]	350 abs[mAU min^−1 mg^−1]	356 abs[mAU min^−1 mg^−1]	2830 abs[mAU min^−1 mg^−1]	2840 abs[mAU min^−1 mg^−1]	1305 abs[mAU min^−1 mg^−1]	1260 abs[mAU min^−1 mg^−1]		Slope of quadratic equation of oxygen consumption after substrate pulse [4, 6]: 45813; Slope of quadratic equation of oxygen consumption after substrate pulse [4, 7]: 114771; Slope of quadratic equation of oxygen consumption after substrate pulse [4, 8]: 230631
OCC(O)CO [glycerol]	70 abs[mAU min^−1 mg^−1]	235 abs[mAU min^−1 mg^−1]	85 abs[mAU min^−1 mg^−1]	247 abs[mAU min^−1 mg^−1]	202 abs[mAU min^−1 mg^−1]	215 abs[mAU min^−1 mg^−1]	100 abs[mAU min^−1 mg^−1]	102 abs[mAU min^−1 mg^−1]		
